Assays:
Assay in all cases: relative viability (nuclei count vs DMSO), 5 days (fraction); higher = more cells survive
Erlotinib + Olaparib = compound: C#Cc1cccc(Nc2ncnc3cc(OCCOC)c(OCCOC)cc23)c1 [Erlotinib] + O=C(c1cc(Cc2n[nH]c(=O)c3ccccc23)ccc1F)N1CCN(C(=O)C2CC2)CC1 [Olaparib] (partner 8 µM)
Summary of the method: (§1)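 Nuclei were stained with Hoechst during a one-step fixation (final 0.05% Triton X-100, 1% formaldehyde, 1 ug/ml Hoechst) carried out 5 days after dosing, then counted on 4× images. The cells, lung cancer lines in 1536-well plates, had been dosed by pin tool the day after seeding with one drug alone or a fixed anchor-drug dose plus five library-drug doses (not always all listed) in √10 steps. Relative viability is the nuclei count in treated wells divided by that in vehicle wells, and each value is the median of duplicate plates.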

AT9283 + Bortezomib = compound: O=C(Nc1c[nH]nc1-c1nc2ccc(CN3CCOCC3)cc2[nH]1)NC1CC1 [AT9283] + CC(C)C[C@H](NC(=O)[C@H](Cc1ccccc1)NC(=O)c1cnccn1)B(O)O [Bortezomib] (partner 0.002 µM)
Summary of the method: as §1

AT9283 + Linsitinib = compound: O=C(Nc1c[nH]nc1-c1nc2ccc(CN3CCOCC3)cc2[nH]1)NC1CC1 [AT9283] + C[C@]1(O)C[C@@H](c2nc(-c3ccc4ccc(-c5ccccc5)nc4c3)c3c(N)nccn32)C1 [Linsitinib] (partner 1 µM)
Summary of the method: as §1

AT9283 + Alpelisib = compound: O=C(Nc1c[nH]nc1-c1nc2ccc(CN3CCOCC3)cc2[nH]1)NC1CC1 [AT9283] + Cc1nc(NC(=O)N2CCC[C@H]2C(N)=O)sc1-c1ccnc(C(C)(C)C(F)(F)F)c1 [Alpelisib] (partner 2 µM)
Summary of the method: as §1

AT9283 + Olaparib = compound: O=C(Nc1c[nH]nc1-c1nc2ccc(CN3CCOCC3)cc2[nH]1)NC1CC1 [AT9283] + O=C(c1cc(Cc2n[nH]c(=O)c3ccccc23)ccc1F)N1CCN(C(=O)C2CC2)CC1 [Olaparib] (partner 8 µM)
Summary of the method: as §1

Cell Line	relative viability (Erlotinib + Olaparib; first compound 0.02 µM)	relative viability (Erlotinib + Olaparib; first compound 0.2 µM)	relative viability (Erlotinib + Olaparib; first compound 0.6325 µM)	relative viability (Erlotinib + Olaparib; first compound 2 µM)	relative viability (AT9283 + Bortezomib; first compound 0.003 µM)	relative viability (AT9283 + Bortezomib; first compound 0.03 µM)	relative viability (AT9283 + Bortezomib; first compound 0.09487 µM)	relative viability (AT9283 + Bortezomib; first compound 0.3 µM)	relative viability (AT9283 + Linsitinib; first compound 0.003 µM)	relative viability (AT9283 + Linsitinib; first compound 0.03 µM)	relative viability (AT9283 + Linsitinib; first compound 0.09487 µM)	relative viability (AT9283 + Linsitinib; first compound 0.3 µM)	relative viability (AT9283 + Alpelisib; first compound 0.003 µM)	relative viability (AT9283 + Alpelisib; first compound 0.03 µM)	relative viability (AT9283 + Alpelisib; first compound 0.09487 µM)	relative viability (AT9283 + Alpelisib; first compound 0.3 µM)	relative viability (AT9283 + Olaparib; first compound 0.003 µM)	relative viability (AT9283 + Olaparib; first compound 0.03 µM)	relative viability (AT9283 + Olaparib; first compound 0.09487 µM)	relative viability (AT9283 + Olaparib; first compound 0.3 µM)
H3255	0.661	0.469	0.387	0.242	0.632	0.719	0.542	0.172	0.877	0.91	0.298	0.132	0.652	0.68	0.443	0.178	0.553	0.52	0.545	0.231
ABC-1	–	1.01	1.03	0.769	1.05	0.261	0.117	0.283	0.722	0.211	0.182	0.182	0.957	0.238	0.269	0.355	0.853	0.324	0.551	0.417
NCI-H1299	0.988	1.01	0.959	1	1.07	1.02	0.437	0.395	0.888	0.705	0.402	0.256	1.08	1.04	0.476	0.352	0.911	0.657	0.366	0.316
NCI-H1993	0.91	0.606	0.748	0.658	1.31	0.997	0.576	0.504	0.788	0.686	0.61	0.588	0.789	0.612	0.552	0.515	1.07	1	0.552	0.391
LOU-NH91	0.733	0.619	0.725	0.624	0.436	0.447	0.438	0.389	0.903	0.968	0.604	0.464	0.695	0.684	0.531	0.427	0.915	0.774	0.512	0.441
LC-2-ad	0.709	0.785	0.692	0.625	1.08	0.509	0.233	0.108	0.847	0.257	0.116	0.112	0.933	0.319	0.106	0.107	0.708	0.647	0.304	0.196
HCC-15	0.701	0.753	0.715	0.626	1.05	0.773	0.696	0.166	0.831	0.424	0.155	0.146	0.874	0.598	0.134	0.135	0.691	0.574	0.192	0.183
NCI-H650	0.419	0.389	–	0.34	0.652	0.775	0.561	0.14	0.7	0.601	0.262	0.164	1	0.951	0.252	0.162	0.396	0.399	0.215	0.146
NCI-H2009	0.783	0.73	0.792	0.627	1.01	0.639	0.363	0.233	1.21	0.704	0.315	0.323	1.13	1.05	0.734	0.401	0.716	0.636	0.458	0.0682
COR-L 105	0.638	0.603	0.47	0.294	0.758	0.303	0.352	0.249	0.854	0.333	0.221	0.288	1.49	0.342	0.278	0.333	0.625	0.408	0.37	0.325
NCI-H1975	0.818	0.712	0.888	0.695	0.388	0.264	0.173	0.179	0.932	0.769	0.341	0.223	0.637	0.624	0.5	0.247	0.731	0.723	0.783	0.647
NCI-H1734	0.61	0.588	0.583	0.545	0.904	0.349	0.296	0.223	0.85	0.583	0.288	0.294	0.696	0.497	0.283	0.292	0.643	0.414	0.293	0.259
NCI-H838	0.823	0.766	0.859	0.726	0.777	0.228	0.184	0.231	1.01	0.247	0.217	0.197	1.06	0.367	0.262	0.269	0.745	0.323	0.183	0.164
